Experimental data taken from patent publication US20160310571A1, “Pharmaceutical Composition Comprising Erythropoietin and Ceftriaxone and A Method for Treating Parkinson's Disease Dementia” (Chung Shan Medical University, priority 2015, published 2016).

Assays:
Assay type in all cases: in vivo, rat
[1] = test system: pyramidal neuron in the hippocampal CA1 area; test: Histopathological analysis: Nissl staining of hippocampal CA1 sections; settings: 14th day, vs group A1 (saline), p<0.001
Description: (§1) Wistar male rats (12 week-old, weight ˜400 grams) purchased from the National Laboratory Animal Center (R.O.C.) are used. The rats are housed in an animal room with constant temperature of 24±1° C., where is kept on a 12-hours light and 12-hours dark cycle. The rats are housed and kept on free diet and water.
(§2) On the 1st day, the rats are anesthetized, followed by bilaterally MPTP (1-methyl-4-phenyl-1,2,3,6-tetrahydropyridine hydrochloride)-infusion into the substantia nigra pars compacta (SNc). The rats with cognitive impairments on working memory and object recognition are used as the PDD rats (Ho et al., Behav Brain Res 268: 177-184, 2014).
(§3) Starting on the 1st day, referring to TABLE 1, saline (group Al), erythropoietin (groups A2 & A3) and ceftriaxone (groups A4 & A5) are administrated to the PDD rats in the corresponding groups. Erythropoietin and ceftriaxone are sequentially administrated to the PDD rats of group A6 with a time interval of 30 minutes. Saline is also used to be administrated to the normal rats of group A0. Moreover, saline, erythropoietin and ceftriaxone are administrated for 14 days (from the 1st day to the 14th day).
(§4) On the 14th day, the rats of groups A0-A6 are sacrificed and the coronal sections are collected. The sections with SNc are used for tyrosine hydroxylase staining, while the sections with hippocampal CA1 area are used for Nissl staining. […]

[2] = test system: DAergic neuron in the SNc; test: Histopathological analysis: tyrosine hydroxylase staining of SNc sections; settings: 14th day, vs group A1 (saline)
Description: as §1, §2, §3, §4

[3] = test system: PDD rats; test: Object recognition test in MPTP-induced PDD rats; settings: 13th day
Description: as §1, §2
(§5) Starting on the 1st day, referring to TABLE 1, saline (group Al), erythropoietin (groups A2 & A3) and ceftriaxone (groups A4 & A5) are administrated to the PDD rats in the corresponding groups. […]
Recognition ability of the rats of groups A0-A6 is measured using the object recognition test (Ho et al., Behav Brain Res 268: 177-184, 2014). […]
On the 13th day, the rat under test “M” is first placed in the open box shown as FIG. 4a, and the time spent exploring the object O1 (TO1) and the total time spent exploring the objects O1, O2 & O3 (TO1+O2+O3) are recorded, respectively. The percentage of the exploration time spent on the object O1 is calculated as (TO1/TO1+O2+O3)*100%. […]

[4] = test system: PDD rats; test: T-maze test (working memory) in MPTP-induced PDD rats; settings: test on 10th day, vs chance (50%)
Description: as §1, §2
as §5, with “groups. Erythropoietin and ceftriaxone are sequentially administrated to the PDD rats of group A6 with a time interval of 30 minutes.” for “groups.”
Working memory of the rats of groups A0-A6 is assessed using the T-maze test (Ho et al., Behav Brain Res 268: 177-184, 2014). […]
On the 10th day, a test session consisting 3 rounds, each of which is composed of a “forced run” and two “choice run”, is carried out. The number of the rewards “R” that the rat under test “M” get (% of correct response) in the 6 choice runs is recorded.

[5] = group A4, ceftriaxone 5 mg/kg/day, p<0.05

SMILES: CO/N=C(\C(=O)N[C@@H]1C(=O)N2C(C(=O)O)=C(CSc3nc(=O)c(=O)[nH]n3C)CS[C@H]12)c1csc(N)n1 [ceftriaxone]
- percentage of the CA1 area occupied by the pyramidal neuron ([1]; group A4, ceftriaxone 5 mg/kg/day): recovery of pyramidal neuron density in the CA1 area
- percentage of the CA1 area occupied by the pyramidal neuron ([1]; group A5, ceftriaxone 10 mg/kg/day): recovery of pyramidal neuron density in the CA1 area
- density of DAergic neuron in the SNc [2, 5]: recovery of DAergic neuron density in the SNc
- density of DAergic neuron in the SNc ([2]; group A5, ceftriaxone 10 mg/kg/day, p<0.01): recovery of DAergic neuron density in the SNc
- percentage of time exploring novel object O4 vs object O1 (recognition ability) ([3]; group A4, ceftriaxone 5 mg/kg/day, p<0.001): can recognize the novel object O4 in the environment
- percentage of time exploring novel object O4 vs object O1 (recognition ability) ([3]; group A5, ceftriaxone 10 mg/kg/day, p<0.05): can recognize the novel object O4 in the environment
- percentage of correct response in T-maze test (working memory) [4, 5]: slightly treatment on the cognitive impairment on working memory
- percentage of correct response in T-maze test (working memory) ([4]; group A5, ceftriaxone 10 mg/kg/day, p<0.001): significant treatment on the cognitive impairment on working memory
